How the values were obtained:
[1] = system: Aβ42-treated cortical neurons; assay: Western blot of lysates of Aβ42-treated rat cortical neurons treated with clomipramine; type: cell-based; conditions: for cell cycle related neuronal apoptosis by immunoblotting (PCNA, cleaved caspase-3): 48 h (FIGS. 3D-3F)
Excerpt: The effect of clomipramine on cell cycle related neuronal apoptosis (CRNA) was investigated in Aβ42-treated cortical neurons (Aβ42 peptide induces neurodegeneration in AD patients). The TAp73 levels were restored upon clomipramine treatment (FIG. 1A). […] FIGS. 1B, 1C, and 1D show the quantification of TAp73, PCNA, and cleaved caspase-3 levels of the Western blot of FIG. 1A.
To determine an effective concentration of clomipramine, Aβ42 treated rat cortical neurons were subjected to different concentrations (10 nM to 100 nM) of clomipramine for 48 h. Lysates were prepared and immunoblotting was performed.
After 48 h, one set of cells were lysed, lysates were prepared and the lysates were subjected to immunoblotting.

[2] = system: AD transgenic mouse model (Tg) cortical neurons; assay: Western blot of cortical neuron lysate from AD transgenic mouse model (Tg) treated with clomipramine; type: cell-based; conditions: Western blot (FIG. 2A)
Excerpt: The effect of clomipramine on cell cycle related neuronal apoptosis (CRNA) was also explored in AD transgenic mouse model (Tg) cortical neurons (in this mouse model, there is an increased production of Aβ42 which induces neurodegeneration similar to AD patients).

TAp73 = assay: Immunoprecipitation of TAp73 and ubiquitination blot in presence of proteasome inhibitor MG132; type: cell-based, rat; conditions: TAp73 immunoprecipitated in presence of MG132 (FIG. 2B)
[3] = system: Aβ42 treated cortical neurons; assay: BrdU incorporation / TUNEL labelling of Aβ42-treated cortical neurons; type: cell-based, rat
Experimental: Subsequently, BrdU incorporation and TUNEL labelling was performed to detect DNA replication and apoptosis, respectively. […] These findings indicate that clomipramine inhibits CRNA in AD neurons by preventing TAp73 degradation.
To another set of cells, BrdU was added after 48 h to label the neurons undergoing the replication (cell cycle re-entry). After that TUNEL assay was performed to label the cells undergoing apoptosis (FIG. 3G). The number of double positive cells were scored and plotted in the graph (FIG. 3H).

[4] = system: APP/PS1 transgenic (TgAD) mouse model for AD; assay: Morris water maze test in TgAD mice; type: in vivo; conditions: 25 mg/kg I.P. for 45 days
Experimental: (§1) Next, the effect of clomipramine was tested in an in vivo mouse model of AD. For this, Amyloid Precursor Protein (APP)/Presenillin 1 (PS1) transgenic (TgAD) mouse model for AD (strain name B6C3-Tg APPswe, PSEN1dE9 85Dboa; stock number 004462) was used. Wild type and transgenic (TgAD) mice were genotyped using genomic DNA isolated from mouse tail and PCR primers according to the Jackson laboratory protocol. Clomipramine hydrochloride, obtained from Sigma (C-7291), was dissolved in ultrapure MQ just before the injection and 100 μl of this solution was injected intraperitonially (I.P.injections) to each mouse of 23-25 g in weight (25 mg/kg body weight) for 45 days. Various behaviour tests (Morris water maze, Y-maze and Radial arm maze) were performed on clomipramine/saline injected mice.
For Morris water maze test, animals were subjected to three trials per session and one session a day, for five days. Each trial was for 60 s in which mice had to reach the hidden platform in the water, and the average time per session was recorded as escape latency. After the escape training, the platform was removed for the probe trial test. It tested the retention of spatial memory at 24 h after training (Vorhees and Williams 2006, Nunez 2008). The number of times a mouse crossed the probe, the time spent in the target quadrant, and swim speed were recorded using ANY-maze software (Stoelting Co., USA).
For in vivo studies, ˜6 months old WT/TgAD mice were intraperitonially injected with 25 mg/kg body weight of clomipramine for 45 days (FIG. 4A) and subjected to various behavior tests. […] After five days of training, probe trial was performed and observed that WT mice spent […] time searching for the platform in the area of previous location (target quadrant) than the TgAD reflected by FIG. 5B. […] These observations indicate improved spatial learning in TgAD mice upon clomipramine treatment.

[5] = system: APP/PS1 transgenic (TgAD) mouse model for AD; assay: Y-maze test in TgAD mice; type: in vivo
Experimental: as §1
For Y-Maze test, animals were habituated in the Y-shaped maze for 3 min with one of the arms blocked then their spontaneous alternations were recorded with all arms open for 5 min (Miedel, Patton et al. 2017). The number of alternations was recorded manually and percent spontaneous alternations were calculated as mentioned below: […]
Y-maze test is an initial test of memory function. […] The memory function was tested when the animal was returned to the maze with all arms open and the tendency to spend time in the new or familiar arms was monitored.

[6] = system: APP/PS1 transgenic (TgAD) mouse model for AD; assay: Radial arm (8-arm) maze test in TgAD mice; type: in vivo
Experimental: as §1, with “Various behaviour tests (Morris water maze, Y-maze and Radial arm maze) were performed on clomipramine/saline injected mice.” left out
For radial arm (8-arm) maze test, mice were given restricted amount of food until their bodyweight reduced to 85% of the initial weight for two days prior to habituation in the maze. […] On the test day, all arms were opened and same five arms were baited as in trial sessions and their series of entries were recorded manually (Miyakawa, Yamada et al. 2001), from which the percentage of working and reference memory errors were calculated. The mouse entering an arm containing food where it had previously entered, was counted as working memory error (short term memory) and if the mouse entered in an arm without bait, was counted as reference memory error (long term memory for position of the baited arms). […]

[7] = Tolerability of chronic clomipramine treatment in WT/TgAD mice; type: in vivo, mouse
Experimental: as §1
Radial arm maze test was also performed to assess the long term as well as short term memory of mice (Penley, Gaudet et al. 2013, Fredriksson, Sreedharan et al. 2019). For this purpose, the 24 h food deprived mice were placed on the central platform of 8-arm maze and allowed to explore the maze for food (bait) placed at the end of each arm as depicted in FIG. 8A. Each training/testing session was 10 min long. […] TgAD mice group committed more reference and working memory errors than WT.

TgAD cortex = assay: Western blot of cortex region of brain of clomipramine-treated TgAD mice; type: in vivo, mouse
Experimental: The animals used in the above-mentioned behavioral tests were euthanized and cortex region of brain was dissected out for biochemical analysis. The levels of Itch, TAp73, PCNA and cleaved caspase-3 were determined with Western blotting (FIG. 9A). FIGS. 9B-9F show the quantification of the levels of Itch, TAp73, PCNA and cleaved caspase-3 of the Western blot of FIG. 9A. After analysis of six animals from each group, it was observed that TAp73 protein levels, which were reduced in TgAD cortex, were much higher in clomipramine treated TgAD brains. […] Importantly, CRNA which is exacerbated in TgAD cortex was reversed in clomipramine-treated mice as indicated by decrease in PCNA and cleaved caspase 3 (FIG. 9A).

[8] = 4 groups of mice treated with clomipramine and saline, 25 mg/kg I.P. 45 days
[9] = TgAD mice, 25 mg/kg I.P. 45 days (FIG. 9A)

CN(C)CCCN1c2ccccc2CCc2ccc(Cl)cc21 [clomipramine]
cell cycle related neuronal apoptosis by immunoblotting (PCNA, cleaved caspase-3) ([1]; 75 nM clomipramine): effective in reducing cell cycle related neuronalapoptosis | TAp73 levels ([1]; 75 nM clomipramine, 48 h, tested 10 nM to 100 nM (FIG. 3C)): restoration in TAp73 levels was observed | cell cycle related neuronal apoptosis by immunoblotting (PCNA, cleaved caspase-3) ([1]; 100 nM clomipramine): more apoptosis was observed | TAp73 levels ([1]; 100 nM clomipramine, 48 h, tested 10 nM to 100 nM (FIG. 3C)): restoration in TAp73 levels was observed | TAp73 levels ([1]; Aβ42-treated cortical neurons, Western blot (FIG. 1A, 1B)): restored | PCNA (cell cycle re-entry) ([1]; Aβ42-treated cortical neurons, Western blot (FIG. 1A, 1C)): significant decrease | cleaved caspase 3 (apoptosis) ([1]; Aβ42-treated cortical neurons, Western blot (FIG. 1A, 1D)): significant decrease | PCNA (cell cycle re-entry) [2]: significant decrease | TAp73 levels [2]: restored | cleaved caspase 3 (apoptosis) [2]: significant decrease | ubiquitination of TAp73 (TAp73): less ubiquitination of TAp73 | BrdU/TUNEL double positive cells (CRNA) ([3]; 75 nM compared with 100 nM clomipramine, 48 h (FIGS. 3G, 3H)): more potent in preventing CRNA | BrdU+/TUNEL+ cells (CRNA) ([3]; Aβ42 treated cortical neurons (FIGS. 3A, 3B)): significant reduction | Morris water maze: time to reach the hidden platform (escape latency) ([4]; five days of training (FIG. 4B)): marked improvement | Morris water maze: escape latency on the last day of training ([4]; last day (FIGS. 4B, 4C, 5A)): almost similar to the WT mice | Morris water maze probe trial: crossing of target quadrant area ([4]; platform removed (FIG. 5B)): more frequently, almost similar to WT mice | Y-maze spontaneous alternation ([5]; TgAD mice, 25 mg/kg I.P. for 45 days, compared to TgAD): improvement of spontaneous alternation | Y-maze total number of arm entries ([5]; all groups, 25 mg/kg I.P. for 45 days (FIG. 7C)): no significant changes | Radial arm maze reference memory errors (long term memory) ([6]; 25 mg/kg I.P. for 45 days (FIG. 8B)): significant improvement | Radial arm maze working memory errors (short term memory) ([6]; 25 mg/kg I.P. for 45 days (FIG. 8C)): significant improvement | food intake [7, 8]: No significant differences | water intake [7, 8]: No significant differences | side effects of chronic treatment ([7]; mice, 25 mg/kg I.P. for 45 days): no major side effects | swimming speed ([7]; wild-type mice, clomipramine vs saline (FIG. 6A), p>0.05): almost unchanged | body weight ([7]; wild-type mice, clomipramine vs saline (FIG. 6B), p>0.05): almost unchanged | learning and memory abilities ([7]; wild-type mice, clomipramine vs saline, p>0.05): almost unchanged | TAp73 protein levels in cortex (TgAD cortex; TgAD brains, 25 mg/kg I.P. 45 days, six animals per group (FIGS. 9A, 9B)): much higher | PCNA in cortex (CRNA) (TgAD cortex; [9]): decrease | cleaved caspase 3 in cortex (CRNA) (TgAD cortex; [9]): decrease

From US20230372356A1, “CLOMIPRAMINE FOR THE TREATMENT OF ALZHEIMER'S DISEASE” (National Institute of Immunology, priority 2022, published 2023)
